In the supplement of paper PMC11208160:

assay: recombinant UMI read abundance after kanamycin selection (control-corrected) (log10(CPM+1)); higher = more efficient recombination; extreme values may be limits of the assay; sequences stand for … in AGTGCAGAGAAAATCGGCCAGTTTTCTCTGCCTGCAGTCCGCATGCCGTGGGACCCCTTGGGTTCTAACCTGTTGCCTAGATTTATGCAGCGGACTGCCTTTCTCCCAAAGTGATAAACCGG…AGGTTGGTTTCACT; site = the 11-nt donor
How it was run: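 Each donor and donor-binding-loop pair was tracked by a 12-nt UMI on a plasmid carrying a promoterless kanamycin gene. With a second plasmid supplying a fixed target and T7-inducible IS621 bridge recombinase, the pool was plated in Escherichia coli on IPTG (0.07 mM) plus kanamycin or unselected. Sequencing of recombinant UMIs across the donor–target junction gave counts expressed as log10(CPM+1) after replicate averaging and control-derived scaling.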
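Note: IS621 bridge recombinase in Escherichia coli cells against a fixed T5 target plasmid.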

Point of comparison: “TAGCCGGCATGGACCGGTTTTCCCGGTAATCCGTATTTGGC (site TTGCCGGCTGC)”, “recombinant UMI read abundance (log10)” value 0. Against it:
- TAGCATACATGGACCGGTTTTCCCGGTAATCCGTATTTGCA (site TAGGATACTTG) — the same, 0
- TAGCATACATGGACCGGTTTTCCCGGTAATCCGTATTTGCA (site TAGTATACTTG) — higher, 0.507
- TAGCATTCATGGACCGGTTTTCCCGGTAATCCGTATTTGGT (site TAGCATTCTAC) — higher, 1.23
- TAGCATTCATGGACCGGTTTTCCCGGTAATCCGTATTTGGT (site TAGCCTTCTAC) — within 0.2 log units, 0.00694
- TAGCATTCATGGACCGGTTTTCCCGGTAATCCGTATTTGGT (site TAGCGTTCTAC) — within 0.2 log units, 0.0097
- TAGCATTCATGGACCGGTTTTCCCGGTAATCCGTATTTGGT (site TAGCTTTCTAC) — the same, 0
- TAGCCATCATGGACCGGTTTTCCCGGTAATCCGTATTTGGT (site TAGCCATCTAC) — higher, 0.74
- TAGCCATCATGGACCGGTTTTCCCGGTAATCCGTATTTGGT (site TAGCCCTCTAC) — within 0.2 log units, 0.0197
- TAGCCATCATGGACCGGTTTTCCCGGTAATCCGTATTTGGT (site TAGCCGTCTAC) — within 0.2 log units, 0.0186
- TAGCCATCATGGACCGGTTTTCCCGGTAATCCGTATTTGGT (site TAGCCTTCTAC) — within 0.2 log units, 0.0124
- TAGCCCTCATGGACCGGTTTTCCCGGTAATCCGTATTTGGT (site TAGCCATCTAC) — within 0.2 log units, 0.00538
- TAGCCCTCATGGACCGGTTTTCCCGGTAATCCGTATTTGGT (site TAGCCCTCTAC) — higher, 1.12
- TAGCCCTCATGGACCGGTTTTCCCGGTAATCCGTATTTGGT (site TAGCCGTCTAC) — within 0.2 log units, 0.0119
- TAGCCCTCATGGACCGGTTTTCCCGGTAATCCGTATTTGGT (site TAGCCTTCTAC) — the same, 0
- TAGCCGACATGGACCGGTTTTCCCGGTAATCCGTATTTGAC (site TAGCCGACTGT) — higher, 2.63
- TAGCCGGCATGGACCGGTTTTCCCGGTAATCCGTATTTGGC (site TAGCCGGCTGC) — higher, 1.62
- TAGCCGGCATGGACCGGTTTTCCCGGTAATCCGTATTTGGC (site TCGCCGGCTGC) — the same, 0
- TAGCCGGCATGGACCGGTTTTCCCGGTAATCCGTATTTGGC (site TGGCCGGCTGC) — the same, 0
- TAGCCTCCATGGACCGGTTTTCCCGGTAATCCGTATTTGTT (site TAGCCTCCTAA) — within 0.2 log units, 0.0845
- TAGCCTGCATGGACCGGTTTTCCCGGTAATCCGTATTTGAT (site TAGCCTGCTAT) — within 0.2 log units, 0.0647
- TAGCGCGCATGGACCGGTTTTCCCGGTAATCCGTATTTGTC (site TAGCGCGCTGA) — higher, 2.77
- TAGCTAGCATGGACCGGTTTTCCCGGTAATCCGTATTTGAC (site TAGCTAGCTAT) — higher, 0.556
- TAGCTAGCATGGACCGGTTTTCCCGGTAATCCGTATTTGAC (site TAGCTAGCTCT) — the same, 0
- TAGCTAGCATGGACCGGTTTTCCCGGTAATCCGTATTTGAC (site TAGCTAGCTGT) — higher, 2.34
- TAGCTAGCATGGACCGGTTTTCCCGGTAATCCGTATTTGAC (site TAGCTAGCTTT) — higher, 0.388
- TAGCTAGCATGGACCGGTTTTCCCGGTAATCCGTATTTGAG (site TAGCTAGCTAT) — higher, 0.457
- TAGCTAGCATGGACCGGTTTTCCCGGTAATCCGTATTTGAG (site TAGCTAGCTCT) — higher, 0.921
- TAGCTAGCATGGACCGGTTTTCCCGGTAATCCGTATTTGAG (site TAGCTAGCTGT) — the same, 0
- TAGCTAGCATGGACCGGTTTTCCCGGTAATCCGTATTTGAG (site TAGCTAGCTTT) — within 0.2 log units, 0.014
- TAGCTAGCATGGACCGGTTTTCCCGGTAATCCGTATTTGGA (site TAGCTAGCTTA) — higher, 0.347
- TAGCTAGCATGGACCGGTTTTCCCGGTAATCCGTATTTGGA (site TAGCTAGCTTC) — higher, 0.303
- TAGCTAGCATGGACCGGTTTTCCCGGTAATCCGTATTTGGA (site TAGCTAGCTTG) — higher, 0.447
- TAGCTAGCATGGACCGGTTTTCCCGGTAATCCGTATTTGGA (site TAGCTAGCTTT) — higher, 0.866
- TAGCTCACATGGACCGGTTTTCCCGGTAATCCGTATTTGGC (site TAGCTCACTGC) — higher, 1.5
- TAGCTCGCATGGACCGGTTTTCCCGGTAATCCGTATTTGAA (site TAGCTAGCTTT) — within 0.2 log units, 0.0173
- TAGCTCGCATGGACCGGTTTTCCCGGTAATCCGTATTTGAA (site TAGCTCGCTTT) — higher, 1.27
- TAGCTCGCATGGACCGGTTTTCCCGGTAATCCGTATTTGAA (site TAGCTGGCTTT) — within 0.2 log units, 0.0219
- TAGCTCGCATGGACCGGTTTTCCCGGTAATCCGTATTTGAA (site TAGCTTGCTTT) — within 0.2 log units, 0.0127
- TAGGAACCATGGACCGGTTTTCCCGGTAATCCGTATTTGCG (site TAGGAAACTCG) — higher, 0.374
- TAGGAACCATGGACCGGTTTTCCCGGTAATCCGTATTTGCG (site TAGGAACCTCG) — higher, 0.478
- TAGGAACCATGGACCGGTTTTCCCGGTAATCCGTATTTGCG (site TAGGAAGCTCG) — within 0.2 log units, 0.00966
- TAGGAACCATGGACCGGTTTTCCCGGTAATCCGTATTTGCG (site TAGGAATCTCG) — higher, 0.681
- TAGGAAGCATGGACCGGTTTTCCCGGTAATCCGTATTTGCG (site TAGGAAACTCG) — higher, 2.32
- TAGGAAGCATGGACCGGTTTTCCCGGTAATCCGTATTTGCG (site TAGGAACCTCG) — within 0.2 log units, 0.00974
- TAGGAAGCATGGACCGGTTTTCCCGGTAATCCGTATTTGCG (site TAGGAAGCTCG) — higher, 2.73
- TAGGAAGCATGGACCGGTTTTCCCGGTAATCCGTATTTGCG (site TAGGAATCTCG) — higher, 1.85
- TAGGAATCATGGACCGGTTTTCCCGGTAATCCGTATTTGCC (site TAGGAATCTAG) — higher, 1.1
- TAGGAATCATGGACCGGTTTTCCCGGTAATCCGTATTTGCC (site TAGGAATCTCG) — higher, 0.458
- TAGGAATCATGGACCGGTTTTCCCGGTAATCCGTATTTGCC (site TAGGAATCTGG) — higher, 2.68
- TAGGAATCATGGACCGGTTTTCCCGGTAATCCGTATTTGCC (site TAGGAATCTTG) — higher, 1.74
- TAGGACTCATGGACCGGTTTTCCCGGTAATCCGTATTTGCG (site TAGGAATCTCG) — higher, 1.98
- TAGGACTCATGGACCGGTTTTCCCGGTAATCCGTATTTGCG (site TAGGACTCTCG) — higher, 2.75
- TAGGACTCATGGACCGGTTTTCCCGGTAATCCGTATTTGCG (site TAGGAGTCTCG) — higher, 1.05
- TAGGACTCATGGACCGGTTTTCCCGGTAATCCGTATTTGCG (site TAGGATTCTCG) — higher, 1.05
- TAGGTACCATGGACCGGTTTTCCCGGTAATCCGTATTTGTT (site TAGGTACCTAA) — within 0.2 log units, 0.0119
- TAGGTTTCATGGACCGGTTTTCCCGGTAATCCGTATTTGCG (site TAGGTTTCTCG) — higher, 1.99
- TAGTAATCATGGACCGGTTTTCCCGGTAATCCGTATTTGCG (site TAGAAATCTCG) — higher, 1.56
- TAGTAATCATGGACCGGTTTTCCCGGTAATCCGTATTTGCG (site TAGCAATCTCG) — higher, 2.29
- TAGTAATCATGGACCGGTTTTCCCGGTAATCCGTATTTGCG (site TAGGAATCTCG) — higher, 1.47
- TAGTAATCATGGACCGGTTTTCCCGGTAATCCGTATTTGCG (site TAGTAATCTCG) — higher, 2.65
- TAGTACTCATGGACCGGTTTTCCCGGTAATCCGTATTTGAT (site TAGTACTCTAT) — higher, 2.53
- TAGTATACATGGACCGGTTTTCCCGGTAATCCGTATTTGTG (site TAGTATACTCA) — higher, 0.807
- TAGTCAACATGGACCGGTTTTCCCGGTAATCCGTATTTGTT (site TAGTCAACTAA) — within 0.2 log units, 0.0293
- TAGTCAGCATGGACCGGTTTTCCCGGTAATCCGTATTTGCT (site TAGTCAGCTAG) — higher, 0.957
- TAGTCTGCATGGACCGGTTTTCCCGGTAATCCGTATTTGAG (site TAGTCTGCTCT) — higher, 0.338
- TAGTGAGCATGGACCGGTTTTCCCGGTAATCCGTATTTGGG (site TAATGAGCTCC) — within 0.2 log units, 0.00708
- TAGTGAGCATGGACCGGTTTTCCCGGTAATCCGTATTTGGG (site TACTGAGCTCC) — the same, 0
